In patent US20240342235A1, “COMPOSITION FOR TREATING INFLAMMATORY BOWEL DISEASE, COMPRISING COMBINED EXTRACT OF ISATIDIS FOLIUM AND JUGLANS MANDSHURICA” (MTHERA PHARMA CO., LTD., priority 2021, published 2024):

Assays:
Type in all cases: in vivo, C57BL/6N male mice
[1] = system: inflammatory bowel disease animal model (2.5% DSS); test: Length of large intestine in DSS-treated mice (Example 2); conditions: 100 mg/kg oral, last day of administration, negative control 5.44±0.12 cm, normal 7.48±0.30 cm
Method: 6-week-old C57BL/6N male mice were purchased and pre-bred for one week, and then they were randomly divided into a total of 5 groups of 8 mice per group, and an experiment was conducted as shown in Table 1 below. 2.5% dextran sulfate sodium (DSS) diluted in sterile water was administered in drinking water for a total of 8 days, and 5-aminosalicylic acid (5-ASA), which is a therapeutic agent for inflammatory bowel disease, or the combined extract of the present invention was orally administered for a total of 10 days from 2 days prior to the day of administration with DSS. It is known that there is a sufficient correlation between the shortened large intestine and histological changes, and the length of the large intestine is commonly used as a morphological parameter of the degree of inflammation. Therefore, in order to evaluate the length of the large intestine of the mouse according to the administration of the combined extract of the present invention, the mouse of Example 1 was sacrificed on the last day of each administration, and then the length of the large intestine was measured, and the average length is shown in FIG. 2.

[2] = system: inflammatory bowel disease animal model (2.5% DSS); test: Body weight change in DSS-treated mice (Example 1); conditions: 100 mg/kg oral, 2.5% DSS in drinking water, 7 days; body weight before DSS = 100%; negative control 89.31±2.75%, normal 105.64±0.54%
Method: 6-week-old C57BL/6N male mice were purchased and pre-bred for one week, and then they were randomly divided into a total of 5 groups of 8 mice per group, and an experiment was conducted as shown in Table 1 below. 2.5% dextran sulfate sodium (DSS) diluted in sterile water was administered in drinking water for a total of 8 days, and 5-aminosalicylic acid (5-ASA), which is a therapeutic agent for inflammatory bowel disease, or the combined extract of the present invention was orally administered for a total of 10 days from 2 days prior to the day of administration with DSS. [table] Body weight loss is a representative symptom of inflammatory bowel disease (Scientific Reports volume 10, Article number: 3829 (2020)). The body weight of the mouse was measured once a day at the same time (10 am) using an electronic scale. The rate of change in body weight of each group was obtained by summing the body weight of 8 mice per group and then dividing by 8. The average body weight immediately before the start of administration of 2.5% DSS in drinking water was set as 100%, and the average body weight of each group was calculated every day to measure the rate of change in body weight. Significance was verified by performing a Student's T test for each group between the negative control group to which 2.5% DSS was administered in drinking water and the experimental group.

[3] = system: inflammatory bowel disease animal model (2.5% DSS); test: Weight and length of spleen (spleen ratio) in DSS-treated mice (Example 3); conditions: 100 mg/kg oral, last day of administration
Method: 6-week-old C57BL/6N male mice were purchased and pre-bred for one week, and then they were randomly divided into a total of 5 groups of 8 mice per group, and an experiment was conducted as shown in Table 1 below.
2.5% dextran sulfate sodium (DSS) diluted in sterile water was administered in drinking water for a total of 8 days, and 5-aminosalicylic acid (5-ASA), which is a therapeutic agent for inflammatory bowel disease, or the combined extract of the present invention was orally administered for a total of 10 days from 2 days prior to the day of administration with DSS.
A representative symptom that can occur in relation to inflammatory bowel disease includes splenitis. As such, when the spleen becomes inflamed, the size of the spleen is increased by its nature (Nutrients 2019, 11 (11), 2776), and in fact, it is known that the spleen becomes enlarged in the model of IBD induced after DSS treatment (Biol. Pharm. Bull. 43, 450-457 (2020)). Therefore, in order to evaluate the level of inflammation in the spleen of mice according to the administration of the combined extract of the present invention, the mouse of Example 1 was sacrificed on the last day of each administration, and then the weight and length of the spleen of each group compared to those of the negative control group were measured, and the spleen ratio is shown.

[4] = system: inflammatory bowel disease-induced mouse model (2.5% DSS); test: Disease activity index (DAI) evaluation II, combined vs single extracts (Example 5); conditions: 100 mg/kg oral, 2.5% DSS for 5 days, 5 days after administration
Method: In order to evaluate whether the combined extract has a synergistic effect compared to that of individual use of an extract of […] folium and an extract of Juglans mandshurica fruits, 6-week-old C57BL/6N male mice were purchased and pre-bred for one week, and then they were randomly divided into a total of 6 groups of 7 mice per group, and an experiment was conducted as shown in Table 3 below. [table] 2.5% dextran sulfate sodium (DSS) diluted in sterile water was administered in drinking water for a total of 5 days, and 5-aminosalicylic acid (5-ASA), which is a therapeutic agent for inflammatory bowel disease, an extract of […] folium alone, an extract of Juglans mandshurica fruits alone, or the combined extract of the present invention was orally administered for a total of 7 days from 2 days prior to the day of administration with DSS. In addition, the disease activity index was measured in the same manner as the method used in Table 2 above, and the results 5 days after administration are shown in FIG. 5.

[5] = system: myeloperoxidase (MPO); test: Myeloperoxidase (MPO) activity in large intestine tissue, Mouse MPO ELISA kit (Example 6); conditions: 100 mg/kg oral for 7 days, 2.5% DSS for 5 days
Method: MPO is an enzyme mainly found in neutrophils, and the activity of MPO in tissues is an indicator of neutrophil infiltration, so it is an indicator of inflammatory response and correlates with the level of intestinal damage caused by inflammatory colitis. Therefore, in order to measure the activity of MPO according to the administration of the combined extract of the present invention, an experiment was conducted as shown in Table 3 of Example 5 above.
2.5% dextran sulfate sodium (DSS) diluted in sterile water was administered in drinking water for a total of 5 days, and 5-aminosalicylic acid (5-ASA), which is a therapeutic agent for inflammatory bowel disease, an extract of Isatidis folium alone, an extract of Juglans mandshurica fruits alone, or the combined extract of the present invention was orally administered for a total of 7 days from 2 days prior to the day of administration with DSS. In order to measure the activity of MPO, the Mouse MPO ELISA kit (HK210-02, Hycult biotechnology) was used. […] The homogenized sample was centrifuged at 1500×g for 15 minutes to obtain a supernatant, and then the activity of MPO was measured using the supernatant.

Compound: Nc1ccc(O)c(C(=O)O)c1 [5-ASA, 5-aminosalicylic acid]
- length of the large intestine [1]: 5.28±0.08 cm
- rate of change in body weight [2]: 91.38±2.01%
- weight and length of the spleen compared to negative control group [3]: decreased
- disease activity index compared to negative control group [4]: decreased
- decrease of the activity of MPO compared to negative control group [5]: 9.6%
